Test results: PubChem BioAssay AID272 (DTP/NCI, 2004)
Where “and” joins values, the source holds several entries; their conditions need not be identical. Equal entries are not always repeated. Records with an inconclusive call do not appear.

Test system: Lewis lung carcinoma i.m., BDF1 mice, T/C %
Experiment: NCI In Vivo Anticancer Drug Screen. Data for tumor model Lewis Lung Carcinoma (intramuscular) in B6D2F1 (BDF1) mice
How it was run: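 Antitumour activity is assessed in transplanted-tumour mice. Endpoint is survival or tumour size, normalised to vehicle-dosed controls (T/C).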

**Q.** How did the T/C (endpoint: mean tumor weight, dose: 64.0 mg/kg/injection, schedule: Q01DX009 (ip), vehicle: Klucel (hydroxypropylcellulose) (HPC), higher = larger tumour) turn out when `CCc1nc(N)nc(N)c1-c1ccc(Cl)cc1` was run?
**A.** Its T/C is 26 % of control.

**Q.** And the T/C (endpoint: mean tumor weight, dose: 64.0 mg/kg/injection, schedule: Q01DX009 (sc), vehicle: Klucel (hydroxypropylcellulose) (HPC), higher = larger tumour)?
**A.** The T/C was 41 % of control.

**Q.** What about the T/C (endpoint: mean tumor weight, dose: 64.0 mg/kg/injection, schedule: Q04DX003 (ip), vehicle: Klucel (hydroxypropylcellulose) (HPC), higher = larger tumour) of the same molecule?
**A.** The T/C was 70 % of control and 93 % of control.

**Q.** What about the T/C (endpoint: mean tumor weight, dose: 64.0 mg/kg/injection, schedule: Q08DX002 (ip), vehicle: Klucel (hydroxypropylcellulose) (HPC), higher = larger tumour) of the same molecule?
**A.** Its T/C is 72 % of control and 81 % of control.

**Q.** What about the T/C (endpoint: mean tumor weight, dose: 128.0 mg/kg/injection, schedule: Q01DX001 (ip), vehicle: Klucel (hydroxypropylcellulose) (HPC), higher = larger tumour) of the same molecule?
**A.** Its T/C is 81 % of control.

**Q.** What about the T/C (endpoint: mean tumor weight, dose: 128.0 mg/kg/injection, schedule: Q01DX001 (oral), vehicle: Klucel (hydroxypropylcellulose) (HPC), higher = larger tumour) of the same molecule?
**A.** The T/C was 82 % of control.

**Q.** And the T/C (endpoint: mean tumor weight, dose: 128.0 mg/kg/injection, schedule: Q01DX001 (sc), vehicle: Klucel (hydroxypropylcellulose) (HPC), higher = larger tumour)?
**A.** The T/C was 50 % of control.

**Q.** And the T/C (endpoint: mean tumor weight, dose: 128.0 mg/kg/injection, schedule: Q04DX003 (ip), vehicle: Klucel (hydroxypropylcellulose) (HPC), higher = larger tumour)?
**A.** The T/C was 71 % of control.

**Q.** What about the T/C (endpoint: median survival time, dose: 2.0 mg/kg/injection, schedule: Q06HX008 (ip), vehicle: Klucel (hydroxypropylcellulose) (HPC), higher = longer survival) of the same molecule?
**A.** The T/C was 92 % of control.

**Q.** What about the T/C (endpoint: median survival time, dose: 4.0 mg/kg/injection, schedule: Q01DX009 (ip), vehicle: Klucel (hydroxypropylcellulose) (HPC), higher = longer survival) of the same molecule?
**A.** The T/C was 95 % of control.

**Q.** What about the T/C (endpoint: median survival time, dose: 4.0 mg/kg/injection, schedule: Q01DX009 (sc), vehicle: Klucel (hydroxypropylcellulose) (HPC), higher = longer survival) of the same molecule?
**A.** Its T/C is 100 % of control.

**Q.** And the T/C (endpoint: median survival time, dose: 4.0 mg/kg/injection, schedule: Q06HX004 (ip), vehicle: Klucel (hydroxypropylcellulose) (HPC), higher = longer survival)?
**A.** The T/C was 107 % of control.

**Q.** And the T/C (endpoint: median survival time, dose: 4.0 mg/kg/injection, schedule: Q06HX008 (ip), vehicle: Klucel (hydroxypropylcellulose) (HPC), higher = longer survival)?
**A.** The T/C was 88 % of control and 104 % of control.

**Q.** What about the T/C (endpoint: median survival time, dose: 8.0 mg/kg/injection, schedule: Q01DX001 (sc), vehicle: Klucel (hydroxypropylcellulose) (HPC), higher = longer survival) of the same molecule?
**A.** The T/C was 104 % of control.

**Q.** What about the T/C (endpoint: median survival time, dose: 8.0 mg/kg/injection, schedule: Q01DX009 (ip), vehicle: Klucel (hydroxypropylcellulose) (HPC), higher = longer survival) of the same molecule?
**A.** The T/C was 104 % of control.

**Q.** What about the T/C (endpoint: median survival time, dose: 8.0 mg/kg/injection, schedule: Q01DX009 (oral), vehicle: Klucel (hydroxypropylcellulose) (HPC), higher = longer survival) of the same molecule?
**A.** The T/C was 104 % of control.

**Q.** What about the T/C (endpoint: median survival time, dose: 8.0 mg/kg/injection, schedule: Q04DX003 (ip), vehicle: Klucel (hydroxypropylcellulose) (HPC), higher = longer survival) of the same molecule?
**A.** The T/C was 94 % of control.

**Q.** What about the T/C (endpoint: median survival time, dose: 8.0 mg/kg/injection, schedule: Q06HX004 (ip), vehicle: Klucel (hydroxypropylcellulose) (HPC), higher = longer survival) of the same molecule?
**A.** Its T/C is 109 % of control.

**Q.** What about the T/C (endpoint: median survival time, dose: 8.0 mg/kg/injection, schedule: Q06HX008 (ip), vehicle: Klucel (hydroxypropylcellulose) (HPC), higher = longer survival) of the same molecule?
**A.** The T/C was 100 % of control.

**Q.** And the T/C (endpoint: median survival time, dose: 8.0 mg/kg/injection, schedule: Q06HX012 (ip), vehicle: Klucel (hydroxypropylcellulose) (HPC), higher = longer survival)?
**A.** Its T/C is 107 % of control.

**Q.** And the T/C (endpoint: median survival time, dose: 8.0 mg/kg/injection, schedule: Q08DX002 (ip), vehicle: Klucel (hydroxypropylcellulose) (HPC), higher = longer survival)?
**A.** Its T/C is 94 % of control.

**Q.** And the T/C (endpoint: median survival time, dose: 12.5 mg/kg/injection, schedule: Q01DX011 (ip), vehicle: steriod suspending solution, higher = longer survival)?
**A.** Its T/C is 103 % of control.

**Q.** What about the T/C (endpoint: median survival time, dose: 16.0 mg/kg/injection, schedule: Q01DX001 (ip), vehicle: Klucel (hydroxypropylcellulose) (HPC), higher = longer survival) of the same molecule?
**A.** The T/C was 100 % of control.

**Q.** What about the T/C (endpoint: median survival time, dose: 16.0 mg/kg/injection, schedule: Q01DX001 (sc), vehicle: Klucel (hydroxypropylcellulose) (HPC), higher = longer survival) of the same molecule?
**A.** Its T/C is 96 % of control.

**Q.** And the T/C (endpoint: median survival time, dose: 16.0 mg/kg/injection, schedule: Q01DX009 (ip), vehicle: Klucel (hydroxypropylcellulose) (HPC), higher = longer survival)?
**A.** The T/C was 108 % of control.

**Q.** What about the T/C (endpoint: median survival time, dose: 16.0 mg/kg/injection, schedule: Q01DX009 (oral), vehicle: Klucel (hydroxypropylcellulose) (HPC), higher = longer survival) of the same molecule?
**A.** Its T/C is 100 % of control.

**Q.** And the T/C (endpoint: median survival time, dose: 16.0 mg/kg/injection, schedule: Q01DX009 (sc), vehicle: Klucel (hydroxypropylcellulose) (HPC), higher = longer survival)?
**A.** Its T/C is 109 % of control.

**Q.** And the T/C (endpoint: median survival time, dose: 16.0 mg/kg/injection, schedule: Q04DX003 (ip), vehicle: Klucel (hydroxypropylcellulose) (HPC), higher = longer survival)?
**A.** Its T/C is 92 % of control and 100 % of control.

**Q.** What about the T/C (endpoint: median survival time, dose: 16.0 mg/kg/injection, schedule: Q06HX008 (ip), vehicle: Klucel (hydroxypropylcellulose) (HPC), higher = longer survival) of the same molecule?
**A.** The T/C was 98 % of control.

**Q.** What about the T/C (endpoint: median survival time, dose: 32.0 mg/kg/injection, schedule: Q01DX001 (ip), vehicle: Klucel (hydroxypropylcellulose) (HPC), higher = longer survival) of the same molecule?
**A.** Its T/C is 102 % of control.

**Q.** What about the T/C (endpoint: median survival time, dose: 32.0 mg/kg/injection, schedule: Q01DX001 (oral), vehicle: Klucel (hydroxypropylcellulose) (HPC), higher = longer survival) of the same molecule?
**A.** Its T/C is 104 % of control.

**Q.** What about the T/C (endpoint: median survival time, dose: 32.0 mg/kg/injection, schedule: Q01DX001 (sc), vehicle: Klucel (hydroxypropylcellulose) (HPC), higher = longer survival) of the same molecule?
**A.** Its T/C is 104 % of control.

**Q.** And the T/C (endpoint: median survival time, dose: 32.0 mg/kg/injection, schedule: Q04DX003 (ip), vehicle: Klucel (hydroxypropylcellulose) (HPC), higher = longer survival)?
**A.** Its T/C is 92 % of control.

**Q.** What about the T/C (endpoint: median survival time, dose: 32.0 mg/kg/injection, schedule: Q08DX002 (ip), vehicle: Klucel (hydroxypropylcellulose) (HPC), higher = longer survival) of the same molecule?
**A.** The T/C was 86 % of control and 102 % of control.

**Q.** What about the T/C (endpoint: median survival time, dose: 64.0 mg/kg/injection, schedule: Q01DX001 (oral), vehicle: Klucel (hydroxypropylcellulose) (HPC), higher = longer survival) of the same molecule?
**A.** The T/C was 104 % of control.

**Q.** And the T/C (endpoint: median survival time, dose: 64.0 mg/kg/injection, schedule: Q01DX001 (sc), vehicle: Klucel (hydroxypropylcellulose) (HPC), higher = longer survival)?
**A.** Its T/C is 90 % of control and 100 % of control.

**Q.** And the T/C (endpoint: median survival time, dose: 64.0 mg/kg/injection, schedule: Q01DX009 (sc), vehicle: Klucel (hydroxypropylcellulose) (HPC), higher = longer survival)?
**A.** The T/C was 104 % of control.

**Q.** And the T/C (endpoint: median survival time, dose: 64.0 mg/kg/injection, schedule: Q04DX003 (ip), vehicle: Klucel (hydroxypropylcellulose) (HPC), higher = longer survival)?
**A.** Its T/C is 96 % of control and 109 % of control.

**Q.** And the T/C (endpoint: median survival time, dose: 128.0 mg/kg/injection, schedule: Q01DX001 (ip), vehicle: Klucel (hydroxypropylcellulose) (HPC), higher = longer survival)?
**A.** Its T/C is 107 % of control.

**Q.** What about the T/C (endpoint: median survival time, dose: 128.0 mg/kg/injection, schedule: Q01DX001 (oral), vehicle: Klucel (hydroxypropylcellulose) (HPC), higher = longer survival) of the same molecule?
**A.** Its T/C is 102 % of control.
